Data taken from patent US11000033B2, “Ketone or oxime compound, and herbicide” (NISSAN CHEMICAL CORPORATION, priority 2014, dated 2021).

Columns and labels:
Type in all cases: in vivo
[1] = tested on: directly sowed rice plant; experiment: Test Example 3: effect on crop by foliage application, Wagner pot (symbol b); conditions: application herbicide amount 320 g/ha
Summary of the method: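 Alluvial soil in a 1/10000-are Wagner pot was flooded to a water depth of 0.1–0.5 cm. Echinochloa crus-galli var. crus-galli, Leptochloa chinensis, Cyperus difformis and rice were sown into it and grown in a greenhouse at 25–30 °C.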

[2] = tested on: Lolium multiflorum Lam.; experiment: Test Example 4: herbicidal effect by soil treatment (symbol K); conditions: for K: Lolium multiflorum Lam., herbicidal effect grade: 320 g/ha; for K (Lolium multiflorum Lam.) herbicidal effect grade: application herbicide amount 320 g/ha
Summary of the method: (§1)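 Seeds were sown in sterilized diluvial soil, covered with about 1.5 cm of soil, and the soil surface was sprayed with a water-diluted emulsion of the compound at a predetermined rate. Plants grew in a greenhouse at 25° C. to 30° C.; effects were scored visually 3 weeks after application.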

[3] = tested on: Echinochloa crus-galli var. crus-galli; experiment: Test Example 4: herbicidal effect by soil treatment (symbol H); conditions: for H: Echinochloa crus-galli var. crus-galli, herbicidal effect grade: 320 g/ha; for H (Echinochloa crus-galli var. crus-galli) herbicidal effect grade: application herbicide amount 320 g/ha
Summary of the method: as §1

[4] = tested on: rice; experiment: Test Example 4: effect on crop by soil treatment (symbol b); conditions: for b: directly sowed rice plant, effect grade on crop: 320 g/ha; for b (directly sowed rice plant) effect on crop grade: application herbicide amount 320 g/ha
Summary of the method: (§2)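 The test used sterilized diluvial soil. Seed was set down in spots and overlaid with about 1.5 cm of soil before growth in a greenhouse kept at 25° C. to 30° C.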

[5] = tested on: wheat; experiment: Test Example 4: effect on crop by soil treatment (symbol e); conditions: for e: wheat, effect grade on crop: 320 g/ha; for e (wheat) effect on crop grade: application herbicide amount 320 g/ha
Summary of the method: as §2

[6] = tested on: beet; experiment: Test Example 5: effect on crop by foliage application, plastic box (symbol f); conditions: 320 g/ha, 3 weeks after application
Summary of the method: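 Greenhouse test at 25° C. to 30° C. Seeds of crops and weeds were spot-sown in boxes of sterilized diluvial soil under roughly 1.5 cm soil cover, then grown for foliage treatment.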

[7] = tested on: Setaria viridis; experiment: Test Example 5: herbicidal effect by foliage application, plastic box (symbol G); conditions: 320 g/ha, 3 weeks after application
Summary of the method: (§3)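 Seeds were sown in sterilized diluvial soil, covered with about 1.5 cm of soil and grown 14 days in a greenhouse at 25° C. to 30° C. An emulsifiable formulation diluted in water to a set rate was sprayed over foliage, and injury was scored 3 weeks later.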

[8] = tested on: corn; experiment: Test Example 4: effect on crop by soil treatment (symbol c); conditions: for c: corn, effect grade on crop: 320 g/ha; for c (corn) effect on crop grade: application herbicide amount 320 g/ha
Summary of the method: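 Seeds were sown in spots on sterilized diluvial soil in a plastic box and covered with about 1.5 cm of soil. Plants were then grown in a greenhouse at 25° C. to 30° C.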

[9] = tested on: Apera spica-venti; experiment: Test Example 5: herbicidal effect by foliage application, plastic box (symbol L); conditions: 320 g/ha, 3 weeks after application
Summary of the method: as §3

[10] = tested on: Digitaria ciliaris; experiment: Test Example 5: herbicidal effect by foliage application, plastic box (symbol F); conditions: 320 g/ha, 3 weeks after application
Summary of the method: as §3

[11] = tested on: Alopecurus myosuroides; experiment: Test Example 5: herbicidal effect by foliage application, plastic box (symbol J); conditions: 320 g/ha, 3 weeks after application
Summary of the method: as §3

[12] = tested on: Digitaria ciliaris; experiment: Test Example 4: herbicidal effect by soil treatment (symbol F); conditions: for F: Digitaria ciliaris, herbicidal effect grade: 320 g/ha; for F (Digitaria ciliaris) herbicidal effect grade: application herbicide amount 320 g/ha
Summary of the method: as §1

[13] = tested on: Abutilon theophrasti; experiment: Test Example 4: herbicidal effect by soil treatment (symbol M); conditions: for M: Abutilon theophrasti, herbicidal effect grade: 320 g/ha; for M (Abutilon theophrasti) herbicidal effect grade: application herbicide amount 320 g/ha
Summary of the method: as §1

[14] = tested on: Cyperus difformis; experiment: Test Example 3: herbicidal effect by foliage application, Wagner pot (symbol E); conditions: application herbicide amount 320 g/ha
Summary of the method: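 Foliar spray of a water-diluted emulsion at a predetermined herbicide amount, applied to 14-day-old plants. Seedlings were raised in flooded alluvial soil (0.1–0.5 cm water) at 25–30 °C in a greenhouse. Injury was rated after 3 weeks against fixed criteria.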

[15] = tested on: beet; experiment: Test Example 4: effect on crop by soil treatment (symbol f); conditions: for f: beet, effect grade on crop: 320 g/ha; for f (beet) effect on crop grade: application herbicide amount 320 g/ha
Summary of the method: as §2

[16] = tested on: Echinochloa oryzacola Vasing.; experiment: Test Example 2: herbicidal activity, application during weed generation in submerged conditions (symbol A); conditions: Table 23; application herbicide amount 320 g/ha; grade 0-5 by criteria of Test Example 1
Summary of the method: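 Scoring of herbicidal effect took place 3 weeks after treatment, using the criteria of the earlier test. Treatment was water-surface application of diluted emulsifiable compound at a set dose. Plants were at one- to two-leaf stage in submerged alluvial soil (4 cm depth), greenhouse 25-30° C.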

[17] = tested on: Veronica persica; experiment: Test Example 5: herbicidal effect by foliage application, plastic box (symbol R); conditions: 320 g/ha, 3 weeks after application
Summary of the method: as §3

SMILES | effect on crop b (directly sowed rice plant), grade 0-5 [1] | K: Lolium multiflorum Lam., herbicidal effect grade [2] | H: Echinochloa crus-galli var. crus-galli, herbicidal effect grade [3] | b: directly sowed rice plant, effect grade on crop [4] | e: wheat, effect grade on crop [5] | f: beet, effect on crop (criteria 0-5) [6] | G: Setaria viridis, herbicidal effect (criteria 0-5) [7] | c: corn, effect grade on crop [8] | L: Apera spica-venti, herbicidal effect (criteria 0-5) [9] | F: Digitaria ciliaris, herbicidal effect (criteria 0-5) [10] | J: Alopecurus myosuroides, herbicidal effect (criteria 0-5) [11] | F: Digitaria ciliaris, herbicidal effect grade [12] | M: Abutilon theophrasti, herbicidal effect grade [13] | herbicidal effect on E, grade 0-5 [14] | f: beet, effect grade on crop [15] | Herbicidal effect grade, A: Echinochloa oryzacola Vasing. [16] | R: Veronica persica, herbicidal effect (criteria 0-5) [17] | K (Lolium multiflorum Lam.) herbicidal effect grade [2] | H (Echinochloa crus-galli var. crus-galli) herbicidal effect grade [3] | b (directly sowed rice plant) effect on crop grade [4] | other results
CC#CC(=O)OC1=C(c2c(C)cc(C)cc2C)C(=O)C(CC(C)=NOC)C1 (centres unmarked) [1-095] | 5 (Herbicidal ratio of 90% or more (almost completely withered)) | 5 (Herbicidal ratio of 90% or more (almost completely withered)) | 5 (Herbicidal ratio of 90% or more (almost completely withered)) | 5 (Herbicidal ratio of 90% or more (almost completely withered)) | 4 (Herbicidal ratio of 70% or higher and lower than 90%) | 0 (Herbicidal ratio of 5% or lower (almost no effect)) | 5 (Herbicidal ratio of 90% or more (almost completely withered)) | 5 (Herbicidal ratio of 90% or more (almost completely withered)) | 5 (Herbicidal ratio of 90% or more (almost completely withered)) | 5 (Herbicidal ratio of 90% or more (almost completely withered)) | 5 (Herbicidal ratio of 90% or more (almost completely withered)) | 5 (Herbicidal ratio of 90% or more (almost completely withered)) | 4 (Herbicidal ratio of 70% or higher and lower than 90%) | 5 (Herbicidal ratio of 90% or more (almost completely withered)) | 0 (Herbicidal ratio of 5% or lower (almost no effect)) | 5 (Herbicidal ratio of 90% or more (almost completely withered)) | 3 (Herbicidal ratio of 40% or higher and lower than 70%) | – | – | – | –
CON=C(C)CC1CC(OC(=O)C(C)(C)Oc2cccc(Cl)c2)=C(c2c(C)cc(C)cc2C)C1=O (centres unmarked) [1-065] | 5 (Herbicidal ratio of 90% or more (almost completely withered)) | – | – | – | – | – | – | – | – | – | – | – | – | 5 (Herbicidal ratio of 90% or more (almost completely withered)) | – | 4 (Herbicidal ratio of 70% or higher and lower than 90%) | – | 5 (Herbicidal ratio of 90% or more (almost completely withered)) | 5 (Herbicidal ratio of 90% or more (almost completely withered)) | 5 (Herbicidal ratio of 90% or more (almost completely withered)) | e (wheat) effect on crop grade [5]: 4 (Herbicidal ratio of 70% or higher and lower than 90%); f: beet, effect on crop grade [6]: 0 (Herbicidal ratio of 5% or lower (almost no effect)); G: Setaria viridis, herbicidal effect grade [7]: 5 (Herbicidal ratio of 90% or more (almost completely withered)); c (corn) effect on crop grade [8]: 5 (Herbicidal ratio of 90% or more (almost completely withered)); L: Apera spica-venti, herbicidal effect grade [9]: 5 (Herbicidal ratio of 90% or more (almost completely withered)); F: Digitaria ciliaris, herbicidal effect grade [10]: 5 (Herbicidal ratio of 90% or more (almost completely withered)); J: Alopecurus myosuroides, herbicidal effect grade [11]: 5 (Herbicidal ratio of 90% or more (almost completely withered)); F (Digitaria ciliaris) herbicidal effect grade [12]: 5 (Herbicidal ratio of 90% or more (almost completely withered)); M (Abutilon theophrasti) herbicidal effect grade [13]: 4 (Herbicidal ratio of 70% or higher and lower than 90%); f (beet) effect on crop grade [15]: 0 (Herbicidal ratio of 5% or lower (almost no effect)); R: Veronica persica, herbicidal effect grade [17]: 3 (Herbicidal ratio of 40% or higher and lower than 70%)
CON=C(C)CC1CC(OC(=O)COc2ccc(OC)cc2)=C(c2c(C)cc(C)cc2C)C1=O (centres unmarked) [1-069] | 5 (Herbicidal ratio of 90% or more (almost completely withered)) | – | – | – | – | – | – | – | – | – | – | – | – | 5 (Herbicidal ratio of 90% or more (almost completely withered)) | – | 4 (Herbicidal ratio of 70% or higher and lower than 90%) | – | 5 (Herbicidal ratio of 90% or more (almost completely withered)) | 5 (Herbicidal ratio of 90% or more (almost completely withered)) | 5 (Herbicidal ratio of 90% or more (almost completely withered)) | e (wheat) effect on crop grade [5]: 4 (Herbicidal ratio of 70% or higher and lower than 90%); f: beet, effect on crop grade [6]: 1 (Herbicidal ratio of 5% or higher and lower than 20%); G: Setaria viridis, herbicidal effect grade [7]: 5 (Herbicidal ratio of 90% or more (almost completely withered)); c (corn) effect on crop grade [8]: 5 (Herbicidal ratio of 90% or more (almost completely withered)); L: Apera spica-venti, herbicidal effect grade [9]: 5 (Herbicidal ratio of 90% or more (almost completely withered)); F: Digitaria ciliaris, herbicidal effect grade [10]: 5 (Herbicidal ratio of 90% or more (almost completely withered)); J: Alopecurus myosuroides, herbicidal effect grade [11]: 5 (Herbicidal ratio of 90% or more (almost completely withered)); F (Digitaria ciliaris) herbicidal effect grade [12]: 5 (Herbicidal ratio of 90% or more (almost completely withered)); M (Abutilon theophrasti) herbicidal effect grade [13]: 4 (Herbicidal ratio of 70% or higher and lower than 90%); f (beet) effect on crop grade [15]: 0 (Herbicidal ratio of 5% or lower (almost no effect)); R: Veronica persica, herbicidal effect grade [17]: 3 (Herbicidal ratio of 40% or higher and lower than 70%)
CON=C(C)CC1CC(OC(=O)COc2ccc(C=O)cc2)=C(c2c(C)cc(C)cc2C)C1=O (centres unmarked) [1-079] | 5 (Herbicidal ratio of 90% or more (almost completely withered)) | 5 (Herbicidal ratio of 90% or more (almost completely withered)) | 5 (Herbicidal ratio of 90% or more (almost completely withered)) | 5 (Herbicidal ratio of 90% or more (almost completely withered)) | 4 (Herbicidal ratio of 70% or higher and lower than 90%) | 0 (Herbicidal ratio of 5% or lower (almost no effect)) | 5 (Herbicidal ratio of 90% or more (almost completely withered)) | 4 (Herbicidal ratio of 70% or higher and lower than 90%) | 5 (Herbicidal ratio of 90% or more (almost completely withered)) | 5 (Herbicidal ratio of 90% or more (almost completely withered)) | 5 (Herbicidal ratio of 90% or more (almost completely withered)) | 5 (Herbicidal ratio of 90% or more (almost completely withered)) | 5 (Herbicidal ratio of 90% or more (almost completely withered)) | 5 (Herbicidal ratio of 90% or more (almost completely withered)) | 0 (Herbicidal ratio of 5% or lower (almost no effect)) | 5 (Herbicidal ratio of 90% or more (almost completely withered)) | 3 (Herbicidal ratio of 40% or higher and lower than 70%) | – | – | – | –
